This series can be described thus: Acid-catalyzed hydrolysis of enol ethers in THF/1 M HCl, percent remaining by GC-FID. Format: physicochemical. The settings on record: for percent remaining, 24 h / percent remaining, 48 h / percent remaining, 72 h / percent remaining, 168 h / percent remaining, 336 h / percent remaining, 504 h / percent remaining, 672 h / percent remaining, initial / rate of hydrolysis / hydrolytic stability compared to corresponding enol ethers prepared from alkyl alcohols: THF/1M HCl (80:20 v/v); for percent remaining, 24 h / percent remaining, 48 h / percent remaining, 72 h / percent remaining, 168 h / percent remaining, 336 h / percent remaining, 504 h / percent remaining, 672 h / percent remaining, initial: room temperature; for percent remaining, initial: time zero; for enol ether remained after 504 h (21 days): Table 1, THF/1M HCl; for rate of hydrolysis / hydrolytic stability compared to corresponding enol ethers prepared from alkyl alcohols: in words. The protocol:
Each enol ether was dissolved in a 4:1 THF/1 M HCl mixture and the percent remaining over time measured relative to an internal standard.
After mixing, 2 mL of this solution were removed with a volumetric pipet and used to obtain the time zero measurement. 2 mL of 1 M HCl were mixed with the remaining 8 mL of the THF solution. This mixture was divided into 5 mL vials (1 mL per vial). The vials were gently topped with nitrogen and fitted with screw caps around which parafilm was wrapped. The vials were stored at room temperature until analyzed. For analyses, 2 mL of ethyl acetate was added to a vial and mixed. After phase separation, the top phase was collected and washed with saturated sodium carbonate (1 mL). Samples of the organic phase were analyzed by GC-FID. For the time zero sample, 0.5 mL of deionized water was added to the 2 mL taken from the original THF solution. 1 mL of this solution was added to a 5 mL vial and diluted with 2 mL of ethyl acetate and mixed. The top phase was collected and washed with saturated sodium carbonate (1 mL). The top phase then was analyzed by GC-FID. The percent of enol ether remaining was determined by dividing the peak area ratio of the enol ether to internal standard by the ratio measured at time zero.

For the compound `CC/C=C\CCOC=Cc1ccc(OC)cc1` [Compound 51, 1-(2-(((Z)-hex-3-en-1-yl)oxy)vinyl)-4-methoxybenzene, reference compound], the “percent remaining, 24 h” value is 89.1%; the “percent remaining, 48 h” value is listed as 80.2%; the “percent remaining, 72 h” value was 72.4%; the “percent remaining, 168 h” value was determined as 52.5%. The “percent remaining, 336 h” value is on record as 29.1%; the “percent remaining, 504 h” value amounted to 14.6%; the “percent remaining, 672 h” value is 10.1%; the “percent remaining, initial” value stood at 100%. Besides, the “enol ether remained after 504 h (21 days)” value (from here on “enol ether remained”) stood at 14.6%.
Regarding `CC(OC=Cc1ccccc1)C(=O)OCCc1ccccc1` (racemic) [Compound 40, (±)-phenethyl 2-(styryloxy)propanoate], the “percent remaining, 24 h” value turned out to be 97.3%; the “percent remaining, 48 h” value is recorded as 95.0%; the “percent remaining, 72 h” value stood at 91.8%; the “percent remaining, 168 h” value amounted to 78.5%. Moreover, the “percent remaining, 336 h” value is listed as 59.0%; the “percent remaining, 504 h” value came to 53.0%; the “percent remaining, 672 h” value is listed as 41.4%; the “percent remaining, initial” value was 100%.
For `C(=Cc1ccccc1)OCCc1ccccc1` [(2-phenethoxyvinyl)benzene, reference compound], the “percent remaining, 24 h” value was 94.6%; the “percent remaining, 48 h” value was 90.0%; the “percent remaining, 72 h” value is reported as 83.7%; the “percent remaining, 168 h” value worked out at 66.4%. The “percent remaining, 336 h” value is 45.2%; the “percent remaining, 504 h” value stood at 35.9%; the “percent remaining, 672 h” value stood at 25.0%; the “percent remaining, initial” value came out at 100%. Moreover, the “enol ether remained” value turned out to be 39.5%.
For the compound `COC(=O)C(C)(C)OC=C(C)c1ccc(C)cc1` [Compound 28, (±)-methyl 2-methyl-2-((2-(p-tolyl)prop-1-en-1-yl)oxy)propanoatemethyl], the “rate of hydrolysis / hydrolytic stability compared to corresponding enol ethers prepared from alkyl alcohols” value was “Slower rates of hydrolysis”; the “percent remaining, 24 h” value is recorded as 99.3%; the “percent remaining, 48 h” value was determined as 98.5%; the “percent remaining, 72 h” value is on record as 98.5%. Further, the “percent remaining, 168 h” value was determined as 96.2%; the “percent remaining, 336 h” value was 92.1%; the “percent remaining, 504 h” value amounted to 89.7%; the “percent remaining, 672 h” value is reported as 85.8%. The “percent remaining, initial” value is reported as 100%.
Turning to `CC(=COCCc1ccccc1)c1ccccc1` [(1-phenethoxyprop-1-en-2-yl)benzene, reference compound], the “percent remaining, 24 h” value stood at 98.4%; the “percent remaining, 48 h” value is given as 96.5%; the “percent remaining, 72 h” value is on record as 93.8%; the “percent remaining, 168 h” value worked out at 86.1%. In addition, the “percent remaining, 336 h” value was determined as 72.7%; the “percent remaining, 504 h” value was determined as 59.0%; the “percent remaining, 672 h” value was determined as 43.7%; the “percent remaining, initial” value came to 100%.
In the case of `CCC(C)OC(=O)C(C)OC=C(C)c1ccc(OC)cc1` (racemic) [Compound 49, (±)-sec-butyl 2-((2-(4-methoxyphenyl)prop-1-en-1-yl)oxy)propanoate], the “percent remaining, 24 h” value amounted to 96.8%; the “percent remaining, 48 h” value amounted to 94.8%; the “percent remaining, 72 h” value is given as 93.8%; the “percent remaining, 168 h” value was found to be 87.6%. In addition, the “percent remaining, 336 h” value was determined as 76.9%; the “percent remaining, 504 h” value worked out at 67.6%; the “percent remaining, 672 h” value turned out to be 56.2%; the “percent remaining, initial” value came out at 100%.
For the compound `CCC(C)OC(=O)C(C)OC=C(C)c1ccc(C)cc1` (racemic) [Compound 46, (±)-sec-butyl 2-((2-(p-tolyl)prop-1-en-1-yl)oxy)propanoate], the “rate of hydrolysis / hydrolytic stability compared to corresponding enol ethers prepared from alkyl alcohols” value is recorded as “Slower rates of hydrolysis”; the “percent remaining, 24 h” value came out at 98.0%; the “percent remaining, 48 h” value was 97.0%; the “percent remaining, 72 h” value was 95.8%. Also, the “percent remaining, 168 h” value amounted to 90.9%; the “percent remaining, 336 h” value is on record as 82.4%; the “percent remaining, 504 h” value was 74.5%; the “percent remaining, 672 h” value amounted to 66.6%. The “percent remaining, initial” value is reported as 100%.
For the compound `CCCCCC(CC)OC=Cc1ccccc1` (stereo not drawn) [(2-(octan-3-yloxy)vinyl)benzene, reference compound], the “percent remaining, 24 h” value is reported as 84.9%; the “percent remaining, 48 h” value amounted to 72.0%; the “percent remaining, 72 h” value is 61.7%; the “percent remaining, 168 h” value was found to be 33.6%. Further, the “percent remaining, 336 h” value was determined as 10%; the “percent remaining, 504 h” value amounted to 4.5%; the “percent remaining, 672 h” value was determined as 0%; the “percent remaining, initial” value came out at 100%. Moreover, the “enol ether remained” value is given as 4.5%.
As for `CC(=COCCc1ccccc1)c1ccc(C)cc1` [1-methyl-4-(1-phenethoxyprop-1-en-2-yl)benzene, reference compound], the “percent remaining, 24 h” value worked out at 97.8%; the “percent remaining, 48 h” value turned out to be 95.5%; the “percent remaining, 72 h” value was found to be 93.9%; the “percent remaining, 168 h” value was 85.0%. In addition, the “percent remaining, 336 h” value amounted to 70.4%; the “percent remaining, 504 h” value was 57.3%; the “percent remaining, 672 h” value was determined as 42.5%; the “percent remaining, initial” value turned out to be 100%.
Turning to `CC/C=C\CCOC(=O)C(C)OC=C(C)c1ccc(OC)cc1` (racemic) [Compound 47, (±)-(Z)-hex-3-en-1-yl 2-((2-(4-methoxyphenyl)prop-1-en-1-yl)oxy)propanoate], the “percent remaining, 24 h” value is 96.6%; the “percent remaining, 48 h” value stood at 94.4%; the “percent remaining, 72 h” value was 91.2%; the “percent remaining, 168 h” value amounted to 81.6%. Moreover, the “percent remaining, 336 h” value turned out to be 65.0%; the “percent remaining, 504 h” value was 51.1%; the “percent remaining, 672 h” value is 40.0%; the “percent remaining, initial” value was 100%.
As for `CCCCCC(CC)OC(=O)C(C)OC=C(C)c1ccccc1` (racemic) [Compound 44, (±)-octan-3-yl 2-((2-phenylprop-1-en-1-yl)oxy)propanoate], the “rate of hydrolysis / hydrolytic stability compared to corresponding enol ethers prepared from alkyl alcohols” value is “improved hydrolytic stability”; the “percent remaining, 24 h” value is on record as 99.3%; the “percent remaining, 48 h” value is on record as 99.5%; the “percent remaining, 72 h” value was 98.9%. The “percent remaining, 168 h” value came out at 96.5%; the “percent remaining, 336 h” value is reported as 93.3%; the “percent remaining, 504 h” value is 90.4%; the “percent remaining, 672 h” value is recorded as 88.6%. For the same compound, the “percent remaining, initial” value was 100%.
Turning to `COC(=O)C(C)(C)OC=Cc1ccccc1` [Compound 10, methyl 2-methyl-2-(styryloxy)propanoate], the “percent remaining, 24 h” value worked out at 97.2%; the “percent remaining, 48 h” value came out at 95.3%; the “percent remaining, 72 h” value amounted to 93.7%; the “percent remaining, 168 h” value was 86.0%. Moreover, the “percent remaining, 336 h” value was determined as 77%; the “percent remaining, 504 h” value turned out to be 70.8%; the “percent remaining, 672 h” value turned out to be 64.1%; the “percent remaining, initial” value was found to be 100%.

(Values after patent US12624309B2, “Enol ether properfume” (Firmenich SA, priority 2020, dated 2026).)
